Measured values: patent US20080292571A1, “Deodorant composition with monocyclic, unsaturated sequiterpene alcohols and glyceryl monoalkyl ethers as synergistic active deodorant agents” (priority 2007, published 2008)

Columns and labels:
[1] = test system: Staphylococcus; test: Anti-microbial test: microorganisms inoculated into gel formula, survivors counted; format: cell-based
Method: The antimicrobially synergistically effect of alpha Bisabolol (Natural) for glyceryl monoalkyl ether was studied and the results are summarized in Tables 15 and 16, below. […] Subsequently the steareth-100, sodium stearate, and stearyl alcohol were added and the mixture cooled. […] The final compositions were then poured into containers and cooled to room temperature. […] Therefore following formula is gel type. Inoculate test microorganisms to provide a suspension containing from […] microorganisms/ml and after 1 hr, 5 hr and 24 hr, check the surviving microorganisms by incubating in the soybean-casein digest agar for 24 hours at 32.5° C. the results are summarized below.

[2] = cited from earlier work
[3] = 0.3% by weight ethylhexylglycerin in ethanol base deodorant vs 0.1% by weight triclosan; cited from earlier work
[4] = test system: odor-causing gram positive bacteria; settings: as reported in U.S. Pat. No. 5,736,574; cited from earlier work

Row | SMILES | anti-microbial activity (in words) ([1]; 0.2% by weight, with no ethylhexylglycerin) | effect on the anti-microbial activity of ethylhexylglycerin ([1]; alpha Bisabolol (Natural) combined with ethylhexylglycerin) | stability ([2]; e.g. against hydrolysis and elevated temperatures) | solubility in fats and organic solvents ([2]; fats and organic solvents like alcohols, glycols and glycol ethers) | solubility in water ([2]; water) [%] | deodorant effectiveness compared with triclosan [3] | anti-microbial activity against odor-causing gram positive bacteria [4]
1 | CC(C)=CCC[C@](C)(O)[C@@H]1CC=C(C)CC1 [alpha Bisabolol (Natural), alpha-Bisabolol] | no anti-microbial activity | synergistic effect |  |  |  |  | 
2 | CCCCC(CC)COCC(O)CO (stereo not shown) [ethylhexylglycerin, Ethylhexylglycerin] |  |  | rather stable | completely soluble | 0.2 | just as effective as 0.1% by weight triclosan | very low
